From PubChem BioAssay (NCI) come the findings set out here.

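Step 1: Grow cells in 96-well plates. Step 2: Expose to compound for 48 hours at 5 concentrations. Step 3: Interpolate endpoints linearly; if unreached, use highest concentration. GI50 = concentration required for 50% inhibition of growth. TGI denotes the concentration required for complete inhibition of growth.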

Some test systems named below: TK-10 renal; PC-3 prostate; COLO 205 colon; UACC-257 melanoma; OVCAR-4 ovarian; SK-OV-3 ovarian; K-562 leukemia; SNB-19 CNS.
What all share (test): inhibition of tumour cell growth, NCI panel, 48 h

Take `N#CC1=C(N)Oc2c(ccc3ccccc23)C1c1cc2ccccc2n2nnnc12` (stereo not drawn): the GI50 in the assay on TK-10 renal is 4.8 µM; in the assay with PC-3 prostate, 0.546 µM; with COLO 205 colon, 2.69 µM; in the assay on UACC-257 melanoma, 9.09 µM; with OVCAR-4 ovarian, 18.7 µM; in the assay with SK-OV-3 ovarian, 2.05 µM. The figures for the GI50 in the assay on K-562 leukemia and in the assay with SNB-19 CNS were 0.365 µM and 0.702 µM, respectively. In addition, the TGI is greater than 100 µM with TK-10 renal; greater than 100 µM in the assay on PC-3 prostate; 7.32 µM in the assay with COLO 205 colon; greater than 100 µM in the assay on UACC-257 melanoma; greater than 100 µM in the assay with OVCAR-4 ovarian; greater than 100 µM with SK-OV-3 ovarian. Moreover, the TGI with K-562 leukemia and in the assay on SNB-19 CNS was greater than 100 µM in each case.
Turning to `COc1ccc([C@@H]2[C@@H](Oc3ccccc3)C(=O)N2c2cc(OC)c(OC)c(OC)c2)cc1F`, the GI50 in the assay on TK-10 renal was 6.52 µM; in the assay with PC-3 prostate it was 0.23 µM; with COLO 205 colon, 0.235 µM; in the assay on OVCAR-4 ovarian it was 2.57 µM; in the assay with SK-OV-3 ovarian, 0.38 µM; in the assay with K-562 leukemia, 0.0417 µM. The GI50 in the assay on SNB-19 CNS was 0.175 µM. Moreover, the TGI with TK-10 renal was greater than 100 µM; in the assay with PC-3 prostate, greater than 100 µM; in the assay with COLO 205 colon it was 0.972 µM; with OVCAR-4 ovarian it was greater than 100 µM; in the assay with SK-OV-3 ovarian, greater than 100 µM; with K-562 leukemia, greater than 100 µM. This compound showed a TGI with SNB-19 CNS greater than 100 µM.
`c1cc(OCCCCCOc2cccc(-c3nc4ccccc4[nH]3)c2)cc(-c2nc3ccccc3[nH]2)c1`: the GI50 in the assay on TK-10 renal is 3.88 µM; in the assay with COLO 205 colon, 1.47 µM; in the assay with UACC-257 melanoma, 2.87 µM; in the assay on OVCAR-4 ovarian it was 2.03 µM; in the assay with SK-OV-3 ovarian, 2.51 µM; in the assay on SNB-19 CNS, 2.85 µM. Further, the TGI in the assay with TK-10 renal was greater than 100 µM; in the assay with COLO 205 colon, 2.79 µM; in the assay with UACC-257 melanoma, 7.85 µM; in the assay with OVCAR-4 ovarian, greater than 100 µM; with SK-OV-3 ovarian it was 18.1 µM; with SNB-19 CNS, greater than 100 µM.
Turning to `CCCCCCCCCCN=C(N)c1ccc(N2CCN(c3ccc(C(N)=NCCCCCCCCCC)cc3)CC2)cc1`, the GI50 in the assay on TK-10 renal is 8.29 µM; in the assay with PC-3 prostate it was 2.94 µM; in the assay with COLO 205 colon, 3.93 µM; in the assay on UACC-257 melanoma, 9.81 µM; with OVCAR-4 ovarian, 6.5 µM; with SK-OV-3 ovarian, 4.08 µM. In addition, the GI50 in the assay on K-562 leukemia is 1.95 µM; in the assay with SNB-19 CNS it was 3.02 µM. Moreover, the TGI in the assay with TK-10 renal was greater than 50 µM; in the assay with PC-3 prostate, 12.1 µM; with COLO 205 colon it was 15.7 µM; in the assay on UACC-257 melanoma, 26.5 µM; in the assay with OVCAR-4 ovarian, greater than 50 µM; in the assay with SK-OV-3 ovarian it was greater than 50 µM. The TGI is greater than 50 µM in the assay with K-562 leukemia and 19.1 µM in the assay on SNB-19 CNS.
In the case of `O=C1NC(c2ccccc2Cl)Nc2ccccc21` (stereo not drawn), the TGI was greater than 100 µM in the assay with TK-10 renal; greater than 72.6 µM in the assay on PC-3 prostate; greater than 54.1 µM in the assay with COLO 205 colon; greater than 100 µM with UACC-257 melanoma; greater than 100 µM in the assay on OVCAR-4 ovarian; greater than 100 µM with SK-OV-3 ovarian. In addition, the TGI in the assay with K-562 leukemia was greater than 30.4 µM; with SNB-19 CNS, greater than 74 µM.
For `O=C(/C=C(\[O-])c1ccccc1)CCCCCCC(=O)/C=C(\[O-])c1ccccc1.O=C(/C=C(\[O-])c1ccccc1)CCCCCCC(=O)/C=C(\[O-])c1ccccc1.O=C(/C=C(\[O-])c1ccccc1)CCCCCCC(=O)/C=C(\[O-])c1ccccc1.[Y+3].[Y+3]`, the GI50 with TK-10 renal is greater than 50 µM; with COLO 205 colon, greater than 50 µM; in the assay on UACC-257 melanoma it was 17.6 µM; with OVCAR-4 ovarian, 14.2 µM; with SK-OV-3 ovarian, greater than 50 µM; with K-562 leukemia, 17.7 µM. In addition, in the assay with SNB-19 CNS, the GI50 was 19 µM. The TGI in the assay on TK-10 renal, in the assay with COLO 205 colon, in the assay with UACC-257 melanoma, in the assay on OVCAR-4 ovarian, in the assay on SK-OV-3 ovarian and with K-562 leukemia was greater than 50 µM in each case. Also, the TGI in the assay on SNB-19 CNS is greater than 50 µM.
For the compound `CC(C)c1ccc2c(c1)CCC1C2CCCC1(C)NCc1ccccc1` (stereo not drawn), the GI50 in the assay with TK-10 renal is 2.71 µM; with PC-3 prostate it was 6.06 µM; in the assay with COLO 205 colon, 0.332 µM; with UACC-257 melanoma it was 2.52 µM; with OVCAR-4 ovarian, 7.26 µM; in the assay with SK-OV-3 ovarian, 14.3 µM. The figures for the GI50 in the assay on K-562 leukemia and with SNB-19 CNS were 1.46 µM and 12.8 µM, respectively. The TGI was found to be 7.19 µM with TK-10 renal; 19.3 µM in the assay with PC-3 prostate; 1.11 µM with COLO 205 colon; 6.13 µM in the assay on UACC-257 melanoma; 19.8 µM in the assay on OVCAR-4 ovarian; 27.6 µM in the assay with SK-OV-3 ovarian. For the same compound, the TGI with K-562 leukemia turned out to be 10.9 µM; in the assay on SNB-19 CNS, 26.4 µM.
With `CC[C@]12C=CCN3CC[C@@]4(c5ccc(OC)cc5N(C)[C@H]4[C@@](O)(C(=O)OC)[C@@H]1OC(=O)CCCN1CCN(CCCC(=O)O[C@@H]4[C@]5(CC)C=CCN6CC[C@@]7(c8ccc(OC)cc8N(C)[C@H]7[C@@]4(O)C(=O)OC)[C@@H]65)CC1)[C@@H]32`, the GI50 in the assay on TK-10 renal was 1.3 µM; in the assay with PC-3 prostate, 0.35 µM; in the assay with COLO 205 colon, 1.67 µM; in the assay with UACC-257 melanoma it was 1.96 µM; with OVCAR-4 ovarian, 1.11 µM; in the assay on SK-OV-3 ovarian, 2.07 µM. The figures for the GI50 in the assay on K-562 leukemia and with SNB-19 CNS were 0.18 µM and 1.23 µM, respectively. The TGI in the assay on TK-10 renal is 2.78 µM; in the assay on PC-3 prostate, 1.57 µM; in the assay on COLO 205 colon, 3.25 µM; with UACC-257 melanoma, 3.69 µM; with OVCAR-4 ovarian, 2.44 µM; with SK-OV-3 ovarian, 3.63 µM. Besides, the values for the TGI in the assay on K-562 leukemia and with SNB-19 CNS were 0.365 µM and 2.59 µM, respectively.
Consider `C#CCCCCCC(=O)N[C@H]1C=C[C@@H]2/C=C(C)/C=C/[C@@H](C)[C@H]([C@H](C)[C@H](O)[C@@H](C)NC(C)=O)OC(=O)/C=C/C=C(C)\C=C\[C@]2(C)C1`, for which the GI50 in the assay on TK-10 renal was 0.0158 µM; in the assay with PC-3 prostate it was less than 0.004 µM; in the assay on COLO 205 colon, 0.00414 µM; with UACC-257 melanoma, less than 0.004 µM; in the assay with OVCAR-4 ovarian, 3.06 µM; in the assay with SK-OV-3 ovarian, less than 0.004 µM. The GI50 in the assay on K-562 leukemia was less than 0.004 µM; in the assay on SNB-19 CNS it was 0.0247 µM. Also, the TGI in the assay on TK-10 renal is greater than 40 µM; with PC-3 prostate, greater than 40 µM; in the assay on COLO 205 colon, 4.06 µM; in the assay on UACC-257 melanoma it was 0.0324 µM; in the assay with OVCAR-4 ovarian, greater than 40 µM; in the assay with SK-OV-3 ovarian, greater than 40 µM. The TGI in the assay with K-562 leukemia and in the assay with SNB-19 CNS was greater than 40 µM in each case.
